Read-outs that look alike come from different tables or passages of the source.
Tests used:
HDAC2 [1] = target: T1, HDAC2 (Homo sapiens (Human), UniProt Q92769); experiment: Caliper HDAC enzymatic endpoint assay, HDAC2; type: biochemical
Protocol: (§1) Substrate A was prepared as 2 mM in DMSO. Its final concentration in the assay for HDACs 1, 2, 3, 6 is 2 μM.
(§2) Below is the HDAC and Substrate concentration used in this assay.

HDAC9 = HDAC9 (Homo sapiens (Human), UniProt Q9UKV0); experiment: Caliper HDAC enzymatic endpoint assay, HDAC9; type: biochemical; details: Table 2C; read-out: HDAC9 IC50 after 0 hr preincubation
Protocol: (§3) The Caliper HDAC Assay Buffer (acronym HAB, 1 liter) was prepared as follows:
(§4) Substrate B was prepared as 2 mM in 100% DMSO. Its final concentration in the assay for HDACs 4, 5, 7, 8, 9 is 2 μM.
(§5) LBH was used as quench inhibitor to stop the reaction at the end point.
IC50 values are in micromolar.

HDAC8 = HDAC8 (Homo sapiens (Human), UniProt Q9BY41); experiment: Caliper HDAC enzymatic endpoint assay, HDAC8; type: biochemical; details: Table 2C; read-out: HDAC8 IC50 after 0 hr preincubation
Protocol: as §3, §4, §5
IC50 values are in micromolar.

HDAC6 = HDAC6 (Homo sapiens (Human), UniProt Q9UBN7); experiment: Caliper HDAC enzymatic endpoint assay, HDAC6; type: biochemical; details: Table 2C; read-out: HDAC6 IC50 after 0 hr preincubation
Protocol: as §1, §2

[2] = tested on: human megakaryocyte progenitors; experiment: Growth of human megakaryocyte progenitors (surrogate assay for platelet depletion); type: cell-based; details: for toxicity to human megakaryocyte progenitors at higher concentrations: particularly at 10 μM and 20 μM
Protocol: Compounds of the invention were evaluated for their effect on the growth of human megakaryocyte progenitors (surrogate assay for platelet depletion). Human CD34+ cells were grown in a collagen-based gel (Megacult-C, Stemcell Technologies). […] 100% indicates no difference in cell viability relative to the DMSO treated cells. […] This is the desired effect.

HDAC7 = HDAC7 (Homo sapiens (Human), UniProt Q8WUI4); experiment: Caliper HDAC enzymatic endpoint assay, HDAC7; type: biochemical; details: Table 2C; read-out: HDAC7 IC50 after 0 hr preincubation
Protocol: as §3, §4, §5
IC50 values are in micromolar.

HDAC4 = HDAC4 (Homo sapiens (Human), UniProt P56524); experiment: Caliper HDAC enzymatic endpoint assay, HDAC4; type: biochemical; details: Table 2C; read-out: HDAC4 IC50 after 0 hr preincubation
Protocol: as §3, §4, §5
IC50 values are in micromolar.

HDAC1 [3] = target: T2, HDAC1 (Homo sapiens (Human), UniProt Q13547); experiment: Caliper HDAC enzymatic endpoint assay, HDAC1; type: biochemical
Protocol: as §1, §2

HDAC5 = HDAC5 (Homo sapiens (Human), UniProt Q9UQL6); experiment: Caliper HDAC enzymatic endpoint assay, HDAC5; type: biochemical; details: Table 2C; read-out: HDAC5 IC50 after 0 hr preincubation
Protocol: as §3, §4, §5
IC50 values are in micromolar.

HDAC3 [4] = target: T3, HDAC3 (Homo sapiens (Human), UniProt O15379); experiment: Caliper HDAC enzymatic endpoint assay, HDAC3; type: biochemical
Protocol: as §1, §2

HDAC2 [5] = target: T1, HDAC2
HDAC1 [6] = target: T2, HDAC1; experiment: Kinetics of the inhibition of HDAC1; details: for T1/2: HDAC1 residence
Protocol: (§6) HDAC1 inactivation kinetic constant was determined by curve-fitting of the plot to a first-order rate equation.

HDAC3 [7] = target: T3, HDAC3; experiment: Kinetics of the inhibition of HDAC3
HDAC2 [8] = target: T1, HDAC2; experiment: Kinetics of the inhibition of HDAC2
HDAC1 [9] = target: T2, HDAC1; experiment: Binding constant from HDAC1 inactivation kinetics; details: HDAC1, values marked *; read-out: Ki (binding constant derived from HDAC1 inactivation kinetics)
Protocol: as §6

INS-1E cells = experiment: Cytokine-induced beta-cell apoptosis, caspase-3 activity assay; type: cell-based, rat; details: IL-1β, IFN-γ, TNF-α, 48 hours, 5 μM compound
Protocol: Compounds of the invention were evaluated for their ability to suppress cytokine-induced beta-cell apoptosis and palmitate and/or glucose-induced beta-cell apoptosis by inhibition of HDAC3. Assay protocols were as follows: Cell culture and reagents. […] Recombinant IL-1β, IFN-γ, and TNF-α were purchased from R&D Systems. Palmitate, D-glucose and fatty acids-free low endotoxin BSA were purchased from Sigma. Palmitate was solubilized in 90% ethanol, heated to 60° C. and used 1:100 dilution in media. Caspase-Glo 3/7 was from Promega and 3-(4,5-dimethylthiazol-2-yl)-2,5-diphenyltetrazolium bromide (MTT) was from Calbiochem. Antibodies for HDAC1, HDAC2, HDAC3, pJNK, JNK cleaved caspase-9 and secondary horseradish-peroxidase conjugated goat anti-mouse and anti-rabbit antibodies were from Cell Signaling. Antibody for beta-actin was from Sigma and antibody against CHOP (GADD153) from Abcam. HDAC inhibitors were purchased from Selleck Chemicals or synthesized in-house. Primers were from Integrated DNA Technologies, High Capacity cDNA RT kit and SYBR green master mix were purchased from Applied Biosystems. INS-1E cells were seeded at 5,000 cells/well using a Multidrop Combi (Thermo Labsystems) in white optical 384-well plates (Corning Life Sciences). After overnight incubation, medium was removed and 50 μL RPMI containing the treated compound, 1% FBS and either a combination of cytokines (10 ng/mL IL-1β, 50 ng/mL IFN-γ, 25 ng/mL TNF-α) or 0.5 mM sodium palmitate was added to every well. After two-day treatment, medium was removed and 20 μL Caspase-Glo 3/7 reagent was added. Luminescence was measured after a two-hour incubation using an Envision plate reader (PerkinElmer). […] The rat INS-1E cell line was simultaneously treated for 48 hours with a combination of pro-inflammatory cytokines IL-1β, IFN-γ, and TNF-α, and the indicated test compounds. […] Compound 9, a negative control, had no effect. […] FIGS. 9C and 9D show a dose-response analysis of HDAC inhibition in suppression of cytokine-induced beta-cell apoptosis. […] This could translate to a larger therapeutic window. […]

HDAC3 [10] = target: T3, HDAC3

T1 sequence (Q92769 whole entry): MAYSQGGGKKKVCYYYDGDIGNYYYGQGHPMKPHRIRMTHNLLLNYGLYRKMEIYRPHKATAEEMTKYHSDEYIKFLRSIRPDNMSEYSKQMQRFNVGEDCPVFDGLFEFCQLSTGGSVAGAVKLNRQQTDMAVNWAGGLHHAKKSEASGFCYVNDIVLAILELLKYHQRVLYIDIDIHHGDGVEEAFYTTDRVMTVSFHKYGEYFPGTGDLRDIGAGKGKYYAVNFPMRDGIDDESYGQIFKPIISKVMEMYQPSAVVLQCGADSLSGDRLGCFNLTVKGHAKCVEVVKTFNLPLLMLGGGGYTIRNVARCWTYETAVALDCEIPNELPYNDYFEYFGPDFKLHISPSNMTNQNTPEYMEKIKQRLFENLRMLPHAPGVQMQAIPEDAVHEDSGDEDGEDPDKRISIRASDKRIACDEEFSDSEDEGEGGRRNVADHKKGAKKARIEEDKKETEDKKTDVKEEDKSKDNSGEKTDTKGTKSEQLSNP
T2 sequence (Q13547 whole entry): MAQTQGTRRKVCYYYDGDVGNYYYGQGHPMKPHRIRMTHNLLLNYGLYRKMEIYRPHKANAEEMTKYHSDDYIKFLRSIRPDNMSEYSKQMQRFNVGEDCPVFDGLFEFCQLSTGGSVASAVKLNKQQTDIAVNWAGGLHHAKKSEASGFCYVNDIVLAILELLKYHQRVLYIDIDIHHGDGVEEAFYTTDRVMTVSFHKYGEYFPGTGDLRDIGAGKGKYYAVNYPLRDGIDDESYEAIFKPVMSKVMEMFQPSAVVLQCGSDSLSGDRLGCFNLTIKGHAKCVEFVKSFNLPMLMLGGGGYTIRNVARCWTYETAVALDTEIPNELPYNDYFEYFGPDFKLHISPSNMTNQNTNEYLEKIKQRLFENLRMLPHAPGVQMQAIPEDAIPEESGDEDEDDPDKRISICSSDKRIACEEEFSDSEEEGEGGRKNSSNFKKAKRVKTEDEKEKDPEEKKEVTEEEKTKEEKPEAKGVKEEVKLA
T3 sequence (O15379 whole entry): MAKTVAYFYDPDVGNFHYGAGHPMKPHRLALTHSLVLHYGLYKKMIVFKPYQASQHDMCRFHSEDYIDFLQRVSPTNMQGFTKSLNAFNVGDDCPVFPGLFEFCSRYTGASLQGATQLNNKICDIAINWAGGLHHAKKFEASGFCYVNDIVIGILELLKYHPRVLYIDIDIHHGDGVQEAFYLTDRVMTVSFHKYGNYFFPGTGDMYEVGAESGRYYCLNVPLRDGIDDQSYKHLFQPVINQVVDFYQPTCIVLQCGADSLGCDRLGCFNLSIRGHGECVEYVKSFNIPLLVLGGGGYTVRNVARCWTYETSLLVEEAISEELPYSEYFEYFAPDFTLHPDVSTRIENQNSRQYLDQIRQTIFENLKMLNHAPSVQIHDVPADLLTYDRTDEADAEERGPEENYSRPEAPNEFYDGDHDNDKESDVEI
T3 sequence (Q9Y618 395-489 partner): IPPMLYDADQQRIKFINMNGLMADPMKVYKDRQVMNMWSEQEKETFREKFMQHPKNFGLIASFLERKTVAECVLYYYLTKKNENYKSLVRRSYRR
Chain of HDAC8 (Q9BY41 whole entry): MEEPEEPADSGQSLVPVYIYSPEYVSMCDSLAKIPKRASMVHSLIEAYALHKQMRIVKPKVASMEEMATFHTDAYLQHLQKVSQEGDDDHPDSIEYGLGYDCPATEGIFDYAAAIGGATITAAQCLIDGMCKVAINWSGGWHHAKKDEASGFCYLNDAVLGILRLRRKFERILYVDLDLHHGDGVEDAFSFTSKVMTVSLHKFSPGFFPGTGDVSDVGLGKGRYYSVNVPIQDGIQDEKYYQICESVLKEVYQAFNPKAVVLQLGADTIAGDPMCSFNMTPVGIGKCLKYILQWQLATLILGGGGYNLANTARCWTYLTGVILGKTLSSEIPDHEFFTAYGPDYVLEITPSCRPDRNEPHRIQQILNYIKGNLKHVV
Chain of HDAC7 (Q8WUI4 whole entry): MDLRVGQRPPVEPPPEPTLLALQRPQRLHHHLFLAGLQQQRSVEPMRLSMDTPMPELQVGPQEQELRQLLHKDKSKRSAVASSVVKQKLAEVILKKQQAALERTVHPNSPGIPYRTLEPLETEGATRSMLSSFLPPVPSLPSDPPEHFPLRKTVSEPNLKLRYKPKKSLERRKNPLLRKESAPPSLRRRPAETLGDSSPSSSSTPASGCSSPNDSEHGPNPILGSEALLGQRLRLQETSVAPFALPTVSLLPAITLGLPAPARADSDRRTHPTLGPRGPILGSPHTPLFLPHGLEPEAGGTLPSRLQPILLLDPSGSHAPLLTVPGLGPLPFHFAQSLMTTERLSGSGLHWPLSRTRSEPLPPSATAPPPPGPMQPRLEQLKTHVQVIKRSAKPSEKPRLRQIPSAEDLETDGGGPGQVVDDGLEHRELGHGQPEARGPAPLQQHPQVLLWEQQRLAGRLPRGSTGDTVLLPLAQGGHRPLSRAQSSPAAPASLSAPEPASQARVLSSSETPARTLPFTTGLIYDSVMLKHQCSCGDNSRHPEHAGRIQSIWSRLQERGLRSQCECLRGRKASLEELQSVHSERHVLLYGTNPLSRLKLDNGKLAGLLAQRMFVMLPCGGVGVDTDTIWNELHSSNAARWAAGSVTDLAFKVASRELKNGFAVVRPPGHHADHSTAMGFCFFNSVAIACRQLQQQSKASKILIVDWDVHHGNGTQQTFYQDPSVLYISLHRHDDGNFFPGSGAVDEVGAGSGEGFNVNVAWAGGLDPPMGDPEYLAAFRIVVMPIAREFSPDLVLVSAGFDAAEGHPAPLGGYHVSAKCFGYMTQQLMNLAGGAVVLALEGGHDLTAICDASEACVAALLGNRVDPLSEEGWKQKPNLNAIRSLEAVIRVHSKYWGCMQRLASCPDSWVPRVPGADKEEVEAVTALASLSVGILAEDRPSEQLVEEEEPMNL
Chain of HDAC4 (P56524 whole entry): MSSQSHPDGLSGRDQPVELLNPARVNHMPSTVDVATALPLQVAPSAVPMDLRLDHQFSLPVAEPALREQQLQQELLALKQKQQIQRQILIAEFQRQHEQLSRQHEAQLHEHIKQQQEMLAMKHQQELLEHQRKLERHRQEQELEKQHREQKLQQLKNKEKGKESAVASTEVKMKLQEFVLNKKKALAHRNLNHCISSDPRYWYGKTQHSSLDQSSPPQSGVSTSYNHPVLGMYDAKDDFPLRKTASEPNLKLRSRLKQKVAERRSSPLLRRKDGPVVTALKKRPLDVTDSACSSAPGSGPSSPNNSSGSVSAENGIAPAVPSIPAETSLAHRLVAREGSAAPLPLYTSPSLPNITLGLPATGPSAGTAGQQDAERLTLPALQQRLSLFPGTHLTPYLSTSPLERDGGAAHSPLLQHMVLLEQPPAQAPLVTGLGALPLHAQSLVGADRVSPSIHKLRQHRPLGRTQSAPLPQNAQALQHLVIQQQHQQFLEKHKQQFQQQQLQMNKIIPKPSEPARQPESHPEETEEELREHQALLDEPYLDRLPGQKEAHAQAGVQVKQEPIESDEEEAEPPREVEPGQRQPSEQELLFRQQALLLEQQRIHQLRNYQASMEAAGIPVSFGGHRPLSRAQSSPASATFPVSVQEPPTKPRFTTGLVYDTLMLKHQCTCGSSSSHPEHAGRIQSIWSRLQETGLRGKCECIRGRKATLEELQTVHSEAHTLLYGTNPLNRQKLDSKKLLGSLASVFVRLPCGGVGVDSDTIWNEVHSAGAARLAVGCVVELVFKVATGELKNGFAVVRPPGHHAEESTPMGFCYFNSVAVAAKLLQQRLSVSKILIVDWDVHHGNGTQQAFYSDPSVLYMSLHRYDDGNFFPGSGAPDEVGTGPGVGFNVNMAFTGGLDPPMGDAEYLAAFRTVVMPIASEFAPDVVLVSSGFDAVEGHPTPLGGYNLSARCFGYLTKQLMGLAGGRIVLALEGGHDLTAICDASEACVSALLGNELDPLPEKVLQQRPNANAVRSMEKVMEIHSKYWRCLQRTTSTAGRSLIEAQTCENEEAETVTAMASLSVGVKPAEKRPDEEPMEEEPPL
Chain of HDAC9 (Q9UKV0 whole entry): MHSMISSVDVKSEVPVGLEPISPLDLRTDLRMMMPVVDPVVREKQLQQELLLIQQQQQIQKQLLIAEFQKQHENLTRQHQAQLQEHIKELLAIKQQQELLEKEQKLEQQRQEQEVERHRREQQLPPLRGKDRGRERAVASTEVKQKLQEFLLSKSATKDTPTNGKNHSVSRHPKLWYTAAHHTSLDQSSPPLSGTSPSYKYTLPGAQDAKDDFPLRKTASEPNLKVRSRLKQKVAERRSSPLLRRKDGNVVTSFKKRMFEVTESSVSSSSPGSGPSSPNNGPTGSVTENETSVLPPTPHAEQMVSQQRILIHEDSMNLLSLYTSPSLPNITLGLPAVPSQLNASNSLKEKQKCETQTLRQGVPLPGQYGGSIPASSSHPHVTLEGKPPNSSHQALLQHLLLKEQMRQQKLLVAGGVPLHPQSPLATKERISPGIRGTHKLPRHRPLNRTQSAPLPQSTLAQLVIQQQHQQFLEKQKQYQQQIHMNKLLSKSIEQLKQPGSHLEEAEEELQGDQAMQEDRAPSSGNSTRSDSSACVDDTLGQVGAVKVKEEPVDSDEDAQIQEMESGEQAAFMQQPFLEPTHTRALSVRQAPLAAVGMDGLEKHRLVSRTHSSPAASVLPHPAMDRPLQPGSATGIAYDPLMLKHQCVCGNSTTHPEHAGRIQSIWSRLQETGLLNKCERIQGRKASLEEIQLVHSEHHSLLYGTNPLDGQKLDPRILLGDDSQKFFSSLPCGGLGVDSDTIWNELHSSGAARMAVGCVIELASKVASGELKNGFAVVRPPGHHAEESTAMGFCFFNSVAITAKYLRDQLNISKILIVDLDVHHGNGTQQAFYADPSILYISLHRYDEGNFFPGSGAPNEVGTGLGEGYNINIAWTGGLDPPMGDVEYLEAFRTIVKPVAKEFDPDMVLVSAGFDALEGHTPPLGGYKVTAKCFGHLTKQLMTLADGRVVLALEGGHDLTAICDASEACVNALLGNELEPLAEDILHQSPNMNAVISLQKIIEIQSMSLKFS

CC(=O)Nc1ccc(C(=O)Nc2cc(-c3ccncc3)ccc2N)cc1 [BRD2492, reference compound]
IC50 (HDAC2 [1]; read-out: HDAC2 IC50 after 3 hr preincubation, Table 2B): 19 nM | IC50 (HDAC9): > 33000 nM | IC50 (HDAC8): > 33000 nM | IC50 (HDAC6): > 33000 nM | toxicity to human megakaryocyte progenitors at higher concentrations [2]: highly toxic | IC50 (HDAC7): > 33000 nM | IC50 (HDAC4): > 33000 nM | IC50 (HDAC1 [3]; read-out: HDAC1 IC50 after 3 hr preincubation, Table 2B): 2 nM | IC50 (HDAC5): > 33000 nM | IC50 (HDAC3 [4]; read-out: HDAC3 IC50 after 3 hr preincubation, Table 2B): 2080 nM

CC(=O)Nc1ccc(C(=O)Nc2ccccc2N)cc1 [CI-994, 4-(Acetylamino)-N-(2-aminophenyl)benzamide, reference compound]
T1/2 (HDAC2 [5]): 3.17 h | effect on megakaryocyte progenitor cell growth at 1 μM ([2]; 1 μM): significant toxic effect on cell growth | toxicity to human megakaryocyte progenitors at higher concentrations [2]: highly toxic | T1/2 (HDAC1 [6]): 1.23 h

Nc1cc(F)ccc1NC(=O)c1ccc(CNC(=O)OCc2cccnc2)cc1 [Compound 1A, reference compound]
IC50 (HDAC2 [1]; read-out: HDAC2 IC50 3 h Preinc, Table 2A, 3 h preincubation): 157 nM | IC50 (HDAC2 [1]; read-out: HDAC2 IC50 @3 hr, 3 hr preincubation): 157 nM | Ki (HDAC3 [7]): 93 nM | koff (HDAC3 [7]): 0.000147 s⁻¹ | loss in potency for HDAC3 (Ki) compared to MS-275 (HDAC3 [7]): 8 fold | Kon (HDAC3 [7]; HDAC3): 0.093 min^−1, uM^−1 | T1/2 (HDAC3 [7]; HDAC3 residence): 1.32 h | less selective than compound 1 (HDAC3 [7]; Ki selectivity HDAC3 versus HDAC1 and 2): 100 fold | binding selectivity (Ki) for HDAC3 versus HDAC1 (HDAC3 [7]; thermodynamic (Ki)): 1.7 fold | binding selectivity (Ki) for HDAC3 versus HDAC2 (HDAC3 [7]; thermodynamic (Ki)): 1.7 fold | Ki (HDAC2 [8]): 160 nM | koff (HDAC2 [8]): 0.000633 s⁻¹ | Kon (HDAC2 [8]; HDAC2): 0.24 min^−1, uM^−1 | T1/2 (HDAC2 [8]; HDAC2 residence): 0.283 h | koff (HDAC1 [6]): > 0.00333 s⁻¹ | Kon (HDAC1 [6]; HDAC1): 1.000 min^−1, uM^−1 | T1/2 (HDAC1 [6]): <0.067 h | IC50 (HDAC1 [3]; read-out: HDAC1 IC50 3 h Preinc, Table 2A, 3 h preincubation): 120 nM | IC50 (HDAC1 [3]; read-out: HDAC1 IC50 @3 hr, 3 hr preincubation): 120 nM | IC50 (HDAC3 [4]; read-out: HDAC3 IC50 3 h Preinc, Table 2A, 3 h preincubation): 36 nM | IC50 (HDAC3 [4]; read-out: HDAC3 IC50 @3 hr, 3 hr preincubation): 36 nM | KI (inactivation) (HDAC1 [9]): 160 nM

CC(=O)Nc1ccc(C(=O)Nc2ccc(C)cc2N)cc1 [Compound 9, 4-acetamido-N-(2-amino-4-methylphenyl)benzamide]
IC50 (HDAC2 [1]; read-out: HDAC2 IC50 3 h Prein, Table 2, 3 h preincubation): > 33000 nM | suppression of cytokine-induced beta-cell apoptosis (caspase activity) (INS-1E cells): no effect | IC50 (HDAC9): > 33000 nM | IC50 (HDAC8): > 33000 nM | IC50 (HDAC6): > 33000 nM | effect on growth and viability of human megakaryocyte progenitor cells ([2]; 0.1, 1, 10 and 20 μM, relative to DMSO treated cells): no significant effect on growth and viability | IC50 (HDAC7): > 33000 nM | IC50 (HDAC4): > 33000 nM | IC50 (HDAC1 [3]; read-out: HDAC1 IC50 3 h Prein, Table 2, 3 h preincubation): > 33000 nM | IC50 (HDAC5): > 33000 nM | IC50 (HDAC3 [4]; read-out: HDAC3 IC50 3 h Prein, Table 2, 3 h preincubation): > 33000 nM

Nc1ccccc1NC(=O)c1ccc(CNC(=O)OCc2cccnc2)cc1 [MS-275, reference compound]
T1/2 (HDAC2 [5]): 1.05 h | T1/2 (HDAC1 [6]): 1.77 h

O=C(CCCCCCC(=O)Nc1ccccc1)NO [SAHA, N1-hydroxy-N8-phenyl-octanediamide, reference compound]
T1/2 (HDAC3 [10]): <4 min | T1/2 (HDAC1 [6]): <0.067 h
